Data from patent US12630521B2, “Arylamides and methods of use thereof” (Genzyme Corporation, priority 2019, dated 2026).

Columns and labels:
[1] = molecular target: T1, CFTR (ΔF508 homozygous CF-HBE cells) (Homo sapiens, UniProt P13569, DEL508-508); assay: TECC24 AUC fold over DMSO @10 uM: CFTR-mediated transepithelial chloride transport in primary CF-HBE cells; assay type: cell-based; details: 10 μM test agent, 48 hours, forskolin-stimulated IEQ AUC divided by vehicle AUC
T1 construct: Primary human bronchial epithelial cells from a ΔF508 homozygous CF donor; host or cells: primary CF-HBE cells (ΔF508/ΔF508 donor)
T1 sequence (P13569 with tags, fused parts or gaps DEL508-508): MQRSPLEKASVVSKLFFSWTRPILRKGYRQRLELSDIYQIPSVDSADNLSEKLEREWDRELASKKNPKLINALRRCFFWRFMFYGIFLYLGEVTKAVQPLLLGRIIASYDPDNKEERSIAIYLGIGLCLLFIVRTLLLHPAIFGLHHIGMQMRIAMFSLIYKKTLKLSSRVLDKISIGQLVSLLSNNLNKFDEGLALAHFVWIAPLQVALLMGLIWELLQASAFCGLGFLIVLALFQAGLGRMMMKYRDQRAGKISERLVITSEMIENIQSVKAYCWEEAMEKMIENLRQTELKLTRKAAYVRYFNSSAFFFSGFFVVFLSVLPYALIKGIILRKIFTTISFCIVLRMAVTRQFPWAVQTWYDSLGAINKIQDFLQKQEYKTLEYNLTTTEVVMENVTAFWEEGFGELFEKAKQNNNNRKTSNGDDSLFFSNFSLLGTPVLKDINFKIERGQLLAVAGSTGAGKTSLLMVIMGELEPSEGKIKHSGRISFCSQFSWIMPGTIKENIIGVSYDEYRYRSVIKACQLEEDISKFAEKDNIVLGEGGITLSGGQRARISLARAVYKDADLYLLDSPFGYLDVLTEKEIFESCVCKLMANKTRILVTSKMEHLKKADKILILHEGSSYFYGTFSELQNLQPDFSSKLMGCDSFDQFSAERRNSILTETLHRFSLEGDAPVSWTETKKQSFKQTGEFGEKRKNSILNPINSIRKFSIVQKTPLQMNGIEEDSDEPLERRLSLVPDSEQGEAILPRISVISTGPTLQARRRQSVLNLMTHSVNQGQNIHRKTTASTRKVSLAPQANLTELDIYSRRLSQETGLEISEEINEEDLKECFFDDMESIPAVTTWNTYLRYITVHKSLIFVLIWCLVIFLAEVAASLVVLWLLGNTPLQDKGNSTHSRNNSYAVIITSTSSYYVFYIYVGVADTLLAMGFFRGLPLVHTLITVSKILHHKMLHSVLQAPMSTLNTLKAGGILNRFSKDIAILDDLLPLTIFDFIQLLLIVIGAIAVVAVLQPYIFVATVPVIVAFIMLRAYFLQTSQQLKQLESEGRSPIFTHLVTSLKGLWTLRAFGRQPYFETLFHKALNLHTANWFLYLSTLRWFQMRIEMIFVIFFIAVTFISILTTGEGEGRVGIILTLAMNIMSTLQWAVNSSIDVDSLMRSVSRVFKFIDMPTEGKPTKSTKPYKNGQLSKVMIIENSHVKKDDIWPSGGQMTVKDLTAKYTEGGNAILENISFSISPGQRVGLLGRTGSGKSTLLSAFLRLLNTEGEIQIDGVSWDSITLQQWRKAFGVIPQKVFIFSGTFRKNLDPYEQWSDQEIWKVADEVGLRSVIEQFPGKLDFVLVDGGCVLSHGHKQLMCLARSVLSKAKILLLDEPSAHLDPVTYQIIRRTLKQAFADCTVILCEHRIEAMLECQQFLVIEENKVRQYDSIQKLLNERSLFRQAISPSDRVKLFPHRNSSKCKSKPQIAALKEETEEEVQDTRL
Outline: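 Primary ΔF508-homozygous CF bronchial epithelial cells were exposed to test agent for 48 h at 36.5° C, then VT and TEER were recorded with benzamil (10 μM), forskolin (10 μM) stimulation and CFTR inhibitor-172 (20 μM) at the end. AUC of equivalent Cl- current between forskolin and inhibitor is expressed as fold over DMSO vehicle.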

[2] = molecular target: T2, human Cystic Fibrosis Transmembrane Conductance Regulator (CFTR) harboring the ΔF508 mutation (Homo sapiens, UniProt P13569, DEL508-508); assay: H441 cell Emax and EC50: HRP-tagged ΔF508-CFTR cell-surface luminescence assay; assay type: cell-based; details: H441 cells expressing HRP-tagged ΔF508-CFTR, 27° C. for two nights; for EC50: 15-point dose-response; for Emax: NCI-H441, % of maximum VX809 signal
T2 construct: expressed in transfected cells; host or cells: H441 carcinoma cell line (G418 selection)
T2 sequence (P13569 with tags, fused parts or gaps DEL508-508): as above
Outline: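 H441 cells expressing ΔF508-CFTR with HRP fused in extracellular loop 4 (CMV promoter), ~10K cells/well, 15-point dose range 24.5 to 0.001 μM, incubated at 27° C. for two nights. Surface CFTR read by Luminata Forte luminescence; Emax as % of maximum VX809 signal, plus EC50.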

Structure (SMILES)	TECC24 AUC fold over DMSO [1]	EC50 [2]	Emax [2]
CCC(C)(C)[C@H](NC(=O)c1ccc2cc(Cl)sc2c1OCc1ccc(C(F)(F)F)cc1)C(=O)O [Compound 33-15, (2S)-2-(2-chloro-7-((4-(trifluoromethyl)benzyl)oxy)-benzo[b]thiophene-6-carboxamido)-3,3-dimethylpentanoic acid]	A (“A” refers to AUC @10 μM > 6)	880 nM	200%
CCC(C)(C)[C@H](NC(=O)c1ccc2sc(C(F)F)cc2c1OCc1ccc(C(F)(F)F)cc1)C(=O)O [Compound 33-36, (2S)-2-(2-(difluoromethyl)-4-((4-(trifluoromethyl)benzyl)oxy)-benzo[b]thiophene-5-carboxamido)-3,3-dimethylpentanoic acid]	A (“A” refers to AUC @10 μM > 6)	750 nM	165%
Cc1c(Cl)sc2ccc(C(=O)N[C@H](C(=O)O)C3(C)CC3)c(OCc3ccc(OC(F)(F)F)cc3)c12 [Compound 34-5, (S)-2-(2-chloro-3-methyl-4-((4-(trifluoromethoxy)benzyl)oxy)-benzo[b]thiophene-5-carboxamido)-2-(1-methylcyclopropyl)acetic acid]	A (“A” refers to AUC @10 μM > 6)	509 nM	106%
CC(C)(C)[C@H](NC(=O)c1ccc2cc(Cl)sc2c1OCc1ccc(C(F)(F)F)cc1)C(=O)O [Compound 33-33, (2S)-2-(2-chloro-7-((4-(trifluoromethyl)benzyl)oxy)-benzo[b]thiophene-6-carboxamido)-3,3-dimethylbutanoic acid]	B (“B” refers to AUC @10 μM between 4-6)	503 nM	177%
CC(C)(C)[C@H](NC(=O)c1ccc2sccc2c1OCc1ccc(SC(F)(F)F)cc1)C(=O)O [Compound 32-11, (2S)-3,3-dimethyl-2-(4-((4-((trifluoromethyl)thio)benzyl)oxy)-benzo[b]thiophene-5-carboxamido)butanoic acid]	B (“B” refers to AUC @10 μM between 4-6)	1040 nM	81.3%
Cc1c(Cl)sc2ccc(C(=O)N[C@H](C(=O)O)C(C)(C)C)c(OCc3ccc(OC(F)(F)F)cc3)c12 [Compound 34-4]	A (“A” refers to AUC @10 μM > 6)	281 nM	159%
CCC(C)(C)[C@H](NC(=O)c1ccc2sc(OC)cc2c1OCc1ccc(C(F)(F)F)cc1)C(=O)O [Compound 33-14, (2S)-2-(2-methoxy-4-((4-(trifluoromethyl)benzyl)oxy)-benzo[b]thiophene-5-carboxamido)-3,3-dimethylpentanoic acid]	A (“A” refers to AUC @10 μM > 6)	1980 nM	422%
Cc1nc2c(OCc3ccc(C(F)(F)F)cc3)c(C(=O)N[C@H](C(=O)O)C(C)(C)C)ccc2s1 [Compound 35-3, (2S)-3,3-dimethyl-2-[[2-methyl-4-[[4-(trifluoromethyl)phenyl]methoxy]-1,3-benzothiazole-5-carbonyl]amino]butanoic acid]	A (“A” refers to AUC @10 μM > 6)	662 nM	286%
CC(C)c1cc2c(OCc3ccc(OC(F)(F)F)cc3)c(C(=O)N[C@H](C(=O)O)C(C)(C)C)ccc2s1 [Compound 33-4, (2S)-2-(2-isopropyl-4-((4-(trifluoromethoxy)benzyl)oxy)-benzo[b]thiophene-5-carboxamido)-3,3-dimethylbutanoic acid]	A (“A” refers to AUC @10 μM > 6)	2350 nM	232%
CC(C)(C)[C@H](NC(=O)c1ccc2sc(Cl)cc2c1OCc1ccc(C(F)(F)F)cc1)C(=O)O [Compound 33-5, (2S)-2-(2-chloro-4-((4-(trifluoromethyl)benzyl)oxy)-benzo[b]thiophene-5-carboxamido)-3,3-dimethylbutanoic acid]	A (“A” refers to AUC @10 μM > 6)	262 nM	251%
CCC(C)(C)[C@H](NC(=O)c1ccc2cc(CCC(C)C)sc2c1OCc1ccc(C(F)(F)F)cc1)C(=O)O [Compound 33-32, (2S)-2-(2-isopentyl-7-((4-(trifluoromethyl)benzyl)oxy)-benzo[b]thiophene-6-carboxamido)-3,3-dimethylpentanoic acid]	B (“B” refers to AUC @10 μM between 4-6)	277 nM	168%
CCC(C)(C)[C@H](NC(=O)c1ccc2sc(Cl)cc2c1OCc1ccc(C(F)(F)F)cc1)C(=O)O [Compound 33-6, (2S)-2-(2-chloro-4-((4-(trifluoromethyl)benzyl)oxy)-benzo[b]thiophene-5-carboxamido)-3,3-dimethylpentanoic acid]	A (“A” refers to AUC @10 μM > 6)	500 nM	279%
CC(C)(C)[C@H](NC(=O)c1ccc2sccc2c1OCC1CCCCC1)C(=O)O [Compound 32-14, (2S)-2-(4-(cyclohexylmethoxy)-benzo[b]thiophene-5-carboxamido)-3,3-dimethylbutanoic acid]	C (“C” refers to AUC @10 μM < 4)	2780 nM	210%
CC(C)c1cc2ccc(C(=O)N[C@H](C(=O)O)C(C)(C)C)c(OCc3ccc(OC(F)(F)F)cc3)c2s1 [Compound 33-12, (2S)-2-(2-isopropyl-7-((4-(trifluoromethoxy)benzyl)oxy)-benzo[b]thiophene-6-carboxamido)-3,3-dimethylbutanoic acid]	C (“C” refers to AUC @10 μM < 4)	999 nM	150%
CC(C)(c1ccccc1)C(NC(=O)c1ccc2sccc2c1OCc1ccc(SC(F)(F)F)cc1)C(=O)O (stereo not drawn) [Compound 32-5, 3-methyl-3-phenyl-2-(4-((4-((trifluoromethyl)thio)benzyl)oxy)-benzo[b]thiophene-5-carboxamido)butanoic acid]	C (“C” refers to AUC @10 μM < 4)	496 nM	93.5%
Cc1c(Cl)sc2ccc(C(=O)N[C@H](C(=O)O)C(C)(C)C)c(OCc3ccc(C(F)(F)F)cc3)c12 [Compound 35-1, (2S)-2-[[2-chloro-3-methyl-4-[[4-(trifluoromethyl)phenyl]methoxy]-benzothiophene-5-carbonyl]amino]-3,3-dimethyl-butanoic acid]	A (“A” refers to AUC @10 μM > 6)	618 nM	151%
Cc1c(Cl)sc2ccc(C(=O)N[C@H](C(=O)O)C3(C)CCC3)c(OCc3ccc(OC(F)(F)F)cc3)c12 [Compound 34-6, (S)-2-(2-chloro-3-methyl-4-((4-(trifluoromethoxy)benzyl)oxy)-benzo[b]thiophene-5-carboxamido)-2-(1-methylcyclobutyl)acetic acid]	A (“A” refers to AUC @10 μM > 6)	1190 nM	155%
CCC(C)(C)[C@H](NC(=O)c1ccc2sc(C)c(Cl)c2c1OCc1ccc(OC(F)(F)F)cc1)C(=O)O [Compound 33-9, (2S)-2-(3-chloro-2-methyl-4-((4-(trifluoromethoxy)benzyl)oxy)-benzo[b]thiophene-5-carboxamido)-3,3-dimethylpentanoic acid]	A (“A” refers to AUC @10 μM > 6)	1130 nM	250%
CC(C)c1cc2ccc(C(=O)N[C@H](C(=O)O)C(C)(C)C)c(OCc3ccc(C(F)(F)F)cc3)c2s1 [Compound 33-31, (2S)-2-(2-isopropyl-7-((4-(trifluoromethyl)benzyl)oxy)-benzo[b]thiophene-6-carboxamido)-3,3-dimethylbutanoic acid]	C (“C” refers to AUC @10 μM < 4)	532 nM	131%
CCc1cc2ccc(C(=O)N[C@H](C(=O)O)C(C)(C)C)c(OCc3ccc(OC(F)(F)F)cc3)c2s1 [Compound 33-26, (2S)-2-(2-ethyl-7-((4-(trifluoromethoxy)benzyl)oxy)-benzo[b]thiophene-6-carboxamido)-3,3-dimethylbutanoic acid]	B (“B” refers to AUC @10 μM between 4-6)	1090 nM	197%
